From article PMC6216040, “Repurposing of an old drug: In vitro and in vivo efficacies of buparvaquone against Echinococcus multilocularis” (International Journal for Parasitology: Drugs and Drug …, 2018)

Experiments:
[1] = tested on: E. multilocularis metacestodes; test: PGI-assay: drug-induced damage on in vitro cultured metacestodes (Pathogen Box screening cascade and EC50); type: cell-based, Echinococcus multilocularis
[2] = tested on: E. granulosus protoscoleces; design: method as in Bonilla et al., 2008; conditions: after 48 h; ref Bonilla et al., 2008; cited from earlier work

For `CC(=O)OCC1OC([S-])C(OC(C)=O)C(OC(C)=O)C1OC(C)=O.CCP(CC)CC.[Au+]` (stereo not drawn) [MMV688978, Auranofin, reference compound], the “activity against metacestodes at 1 μM” value ([1]; 1 μM, triplicates) was “not at 1 μM”, the “PGI release, % of Tx-100 control, average, 5d” value ([1]; 1 µM, triplicates, 5 days of incubation) was -2.65% and the “PGI release, % of Tx-100 control, average, 12d” value ([1]; 1 µM, triplicates, 12 days of incubation) was -1.30%. The “activity in the screen at 10 μM (confirmed in triplicates, >20% relative PGI release)” value ([1]; 10 μM, 5 and 12 days) was “active”, the “PGI release, % of the Tx-100 control, 5d” value ([1]; 10 µM, singlets, 5 days of incubation) was 84.86% and the “PGI release, % of the Tx-100 control, 12d” value ([1]; 10 µM, singlets, 12 days of incubation) was 96.09%. The “PGI release, % of Tx-100 control, average, 5d” value ([1]; confirmatory screening at 10 µM in triplicates, 5 days of incubation, values as % of Tx-100 control) was 47.33%, the “PGI release, % of Tx-100 control, average, 12d” value ([1]; confirmatory screening at 10 µM in triplicates, 12 days of incubation, values as % of Tx-100 control) was 61.40% and the concentration killing protoscoleces [2] was 2.5 µM.
